Patent US8217059B2, “Compositions and methods for treating spasticity” (Allergan, Inc., priority 2009, dated 2012)
Entries after “also recorded” stand apart in the source; their conditions may differ.

Columns and labels:
rats with spasticity [1] = experiment: Electromyographic (EMG) recording from gastrocnemius muscle during ankle flexion in rats with ischemia-induced spasticity; format: in vivo; details: 100 mg/kg i.p., FIG. 1
Procedure: (§1) After ischemia, animals with developed paraplegia were selected and maintained for 3-12 months. To identify the presence of spasticity, the following tests were performed at 7-14 day intervals as described below: 1) tonic EMG activity recorded from gastrocnemius muscle (i.e., stimulus-independent changes in EMG activity); 2) peripheral muscle resistance measurement during a computer controlled ankle-flexion and simultaneous EMG recording from gastrocnemius muscle (i.e., stimulus-dependent changes in EMG activity); and 3) motor evoked potential recording.
To record EMGs, two silver needle (22 G) electrodes (distance between recording electrodes=1 cm) were placed percutaneously into the gastrocnemius muscle. Electrodes were connected to a preamplifier (HS4 fiber optic BIOAMP HEADSTAGE, WPI) and amplified using DB4 fiber optic amplifier (WPI). Animals were then allowed to acclimate for 10 min and the EMG responses recorded before, during and after ankle flexion. Recorded signal was digitized by the Instrunet Model 100 Network A/D, acquired by the Instrunet Model 200 PCI controller (Omega, USA) and stored in PC for analysis.

rats with spasticity [2] = experiment: Peripheral muscle resistance during computer-controlled ankle flexion in rats with ischemia-induced spasticity; format: in vivo
Procedure: as §1
Peripheral muscle resistance was measured using a previously described system (O. Kakinohana, Neuroscience 1:141(3) (2006)). Briefly, animals are placed into a plastic restrainer and one hind paw attached by a tape to a metal plate driven by a computer-controlled stepping motor. The metal plate is equipped with a digital force transducer. The resistance of the ankle to flexion was measured during motor-driven ankle flexion and data collected directly to the computer.

SMILES: N[C@@H](C(=O)N1CCCC1)[C@@H](O)c1ccncc1 [Compound A]
- EMG response / EMG activity (rats with spasticity [1]): corresponding changes in EMG activity; also recorded: inhibits EMG response
- spasticity associated with transient ischemia of the spinal cord (rats with spasticity [2]; 100 mg/kg): inhibits the spasticity
- muscle resistance during the period of ankle flexion (rats with spasticity [2]; 100 mg/kg of Compound A, spasticity after transient spinal cord ischemia): decrease in muscle resistance
